Where a name gives a salt, the structure may show the parent alone.
Assays:
[1] = Retina levels after topical versus oral dosing over seven days (Example 9); conditions: albino, rabbit, in vivo, 1.76 mg/kg/day
Experimental: Once a day topical dosing of 0.37% memantine HCl (w/v) borate buffered solution (0.242 mg/kg/day), was compared to daily oral dosing of memantine HCL, 1.76 mg/kg/day, in albino rabbits over seven days. […] Peak levels obtained by topical dosing far exceeded levels thought to be possible by oral dosing. […] Thus, topical dosing of this formulation is […].

Rabbits = assay: Five day toxicology study, topical dosing twice a day; format: in vivo, rabbit; conditions: CMC based versus borate buffered formulations
Experimental: This study was followed up by a five day toxicology study which included borate buffered formulations ranging from 0.1 to 0.75% (w/v) memantine, CMC based formulations ranging from 0.1 to 1.0% (w/v) memantine and the relevant placebos. All formulations were preserved with 20 ppm BAK.
The formulations were dosed with 35 μL drops topically to the cul-de-sac of rabbits twice a day for […]. The rabbits were evaluated by gross clinical observation of irritation, ranked as none, slight, mild, moderate or severe. The irritation score was a sum of lacrimation, chemosis, hyperemia and tolerability all scored from none to severe.

in vivo = conditions: rabbit, po, 2 mg/kg
Experimental: Tissue concentrations of memantine were determined after oral and topical dosing. Rabbits were dosed topically with 35 μl of a 0.1% (w/v) aqueous solution of radiolabeled memantine twice a day to both eyes for 7 days (equivalent to approximately 0.07 mg/kg/day). This composition is detailed in Table 1 as Composition 2. Another subset of rabbits was dosed orally with 2 mg/kg radiolabeled memantine for seven days. At the end of the dosing period ocular tissue concentrations were quantified.

[2] = Autoradiography after topical ophthalmic instillation; format: in vivo, rabbit
Experimental: General disposition of topical ophthalmic 1-amino-3,5-dimethyladamantane hydrochloride (memantine) instillation was assessed by autoradiography. Briefly, albino and pigmented rabbits were dosed via topical ophthalmic instillation with a 0.74% (w/v) aqueous isotonic memantine solution having a pH of 7.4. After dosing, autoradiographic sections of the eye were acquired at 0.25, 0.5, 1, and 2 and 24 hours post dosing.

[3] = assumed for the calculation; cited from earlier work
[4] = Human oral clinical pharmacokinetic study; format: in vivo
Experimental: Assuming a 31% protein binding and a retina-choroid concentration equivalent to the free-unbound plasma memantine concentration, the peak retinal level of memantine would be 0.30 μM.

[5] = cited from earlier work

CC12CC3CC(C)(C1)CC(N)(C3)C2 [memantine, 1-amino-3,5-dimethyladamantane hydrochloride]
concentration at 7 days [1]: 100 ng/mL
improvement of tolerability, factor (Rabbits): 5-8
concentration at 7 days (in vivo): 107 ng/mL
half-life in the posterior globe (qualitative) ([2]; albino and pigmented rabbits, topical 0.74% (w/v) solution): relatively long
binding to ocular melanin ([2]; pigmented tissues, autoradiography intensity): binds to the ocular melanin
presence in posterior ocular tissues ([2]; topical 0.74% (w/v) aqueous isotonic solution pH 7.4, albino and pigmented rabbits): present in the posterior sclera, choroid and/or retina
protein binding [3]: 31%
peak retinal level (calculated) ([4]; oral 20 mg per day, assuming 31% protein binding and retina-choroid equal to free plasma concentration): 0.30 µM
mean plasma concentration ([4]; oral dose of 20 mg per day): 95 ng/mL
dose limiting side effects ([5]; oral delivery): dizziness, lightheadedness and slurred speech
other adverse events associated with CNS excitation ([5]; oral dosages of 5 to 30 mg/day): anxiety, dissociation, dry mouth, headache, nervousness, slurred speech, tiredness and weakness

From patent US20050031652A1, “Compositions and methods comprising memantine and polyanionic polymers” (priority 2003, published 2005)
